For test [1], the system named is human iPSC-derived cerebral cortical neural stem cells (hNSCs). Nature of the test: Neurogenesis and neuronal differentiation of hNSCs (MAP2 immunocytochemistry). Type of test: cell-based. The note with it: 0.1 and 1 μM, 3 or 5 days. As for the experimental part:
Human iPSC-derived cerebral cortical neural stem cells (hNSCs) (Axol Bioscience Inc., UK) were cultured as monolayers at a density of 1.010^4 cells/cm^2 on 100 mm diameter Petri dishes. The cells were collected from their original cryovial, suspended in Plating-XF Medium and plated on Petri dishes coated with SureBondXF 1× working solution prepared in D-PBS (without calcium or magnesium). hNSCs were incubated at 37° C. and 5% CO2 and 24 hours after of incubation, the plating medium was replaced with fresh Neural Expansion-XF Medium supplemented with the growth factors Recombinant Human EGF and Recombinant Human FGF2 (final concentration of 20 ng/mL (1×) of FGF2 and EGF). The cultures were re-fed with fresh Neural Expansion-XF supplemented with EGF and FGF2 every two days. When the hNSCs reached approximately 80% confluence, they were prepared for treatment. […]
Digital Leica LAS AF 2.2.0 software (Live Data Mode system) was used for counting Map2ab+DAPI+ cells. […] For each experimental condition, cells from 3 different tubes were each analyzed in triplicate and 3 frames were collected at 20× magnification. Data were analyzed with GraphPad Prism 6 software, version 6.05 (GraphPad, Inc.) and are expressed as mean±SEM. Statistical differences among groups were determined by two-way ANOVA followed by post hoc Bonferroni tests for comparison among means. […]

For test [2], the system named is MES-induced tonic seizures. The test can be described thus: Maximal electroshock seizure (MES) test. Type of test: in vivo. The note with it: Mus musculus, ip, i.p. 60 minutes prior to MES, male C57Bl6 mice, sigmoidal curve, constant top, read-out: ED50 protecting 50% of mice against MES-induced tonic seizures. As for the experimental part:
This study was performed using male C57Bl6 mice, weighing between 23.6-31.2 g, which were purchased from a licensed breeder (Charles River, UK). Naïve mice were acclimatized to the procedure room in their home cages, with food and water available ad libitum. Animals were housed in groups of 2-3, in standard caging on a 12 hr/12 hr light-dark cycle. All animals were tail marked and weighed at the beginning of the study. Animals were randomly assigned to vehicle or treatment groups.
The following drugs were used in this study: synthetic CBD (SYN) and botanically derived purified CBD (BOT). The control vehicle used was (1:1:18), which was 5% Ethanol, 5% Kolliphor, 90% saline, and has been used extensively throughout similar seizure tests. All drugs were dissolved in the control vehicle for comparison. Animals were dosed (10 ml/kg) i.p. at 60 minutes prior to the administration of the maximal electroshock seizure (IVIES) test. In addition to the vehicle group, the dosage groups used for each treatment and included doses of 10, 50, 100 (Experiment 1 only), 150 and 200 mg/kg for CBD (SYN) and CBD (BOT). The number of animals in each of these groups were 10 (n=10).
Two separate experiments were undertaken using two different batches of the botanically derived purified CBD. […]
(In general: Protection in the maximal electroshock model is a classic sign of anticonvulsant action.)

Test [3] deals with sub-chronic PCP-induced deficit in novel object recognition. The test can be described thus: Novel object recognition (NOR) test after sub-chronic PCP. Conditions: rat dose multiplied by 0.16 (FDA dose conversion guidance). Type of test: in vivo. As for the experimental part: Female hooded-Lister rats were used for this experiment. Rats were housed in groups of 5 under standard laboratory conditions under a 12 hr light: dark cycle, with lights on at 0700 hr. Testing was carried out in the light phase. Rats were randomly assigned to two treatment groups and treated with vehicle, n=20 (distilled water, i.p.) or Phencyclidine hydrochloride (PCP), n=100 (2 mg/kg, i.p. twice daily for 7-days). PCP was dissolved in distilled water. This was followed by a 7-day wash out period before the rats were tested following acute treatment with CBD, risperidone or vehicle. […]
Following the 3 minute habituation period, the rats are given two 3 minute trials (T1 and T2) which were separated by a 1 minute inter-trial interval in the home cage during which the objects were changed. Behavior in all trials was recorded on video for subsequent blind scoring. […]
The exploration time(s) of each object (A, B, familiar and novel) in each trial were recorded using two stopwatches and the following factors were calculated: total exploration time of both objects in the acquisition trial, total exploration time of both objects in the retention trial. Habituation of exploratory activity included the exploration time, as measured by the number of lines crossed, for both trials.
All data were assessed for normality using D'Agostino and Pearson normality test. […]

Read-outs that look alike come from different tables or passages of the source.

As to `C=C(C)[C@@H]1CCC(C)=C[C@H]1c1c(O)cc(CCCCC)cc1O` [Synthetic CBD, 2-[(1R,6R)-3-Methyl-6-(1-methylethenyl)-2-cyclohexen-1-yl]-5-pentyl-1,3-benzenediol], the “Effect on neurogenesis and neuronal differentiation of hNSCs relative to vehicle-treated cells” value in test [1] is listed as “did not have a significant effect”. Further, the ED50 (as a rule, the midpoint of the dose-response relation) in test [2] (Experiment 1) came to 77.6 mg/kg; in test [2] (Experiment 2), 77.4 mg/kg. Besides, in test [3], the “Human equivalent of the rat MED” value is 1.6 mg/kg/day.

Source of the values: patent US11865102B2, “Cannabidiol preparations and its uses” (GW Research Limited, priority 2018, dated 2024).
